According to patent publication US20160166648A1, “Treatment of Multiple Sclerosis With Combination of Laquinimod and Interferon-Beta” (Teva Pharmaceutical Industries, Ltd., priority 2011, published 2016):
Where “and” joins values, the source holds several entries; their conditions need not be identical. Identical values can stand only once. Like-named read-outs stand apart in the source and are kept apart here.

Experiments:
[1] = in vivo; cited from earlier work
[2] = system: MOG induced EAE in C57 BI mice; test: Interferon-β s.c. daily alone or in combination with laquinimod in chronic MOG induced EAE; type: in vivo, C57BL/6 mice; settings: for Activity compared to Laquinimod: Table 6
Multiple Sclerosis = settings: two phase III trials; cited from earlier work
[3] = Laquinimod 10 mg/kg oral QD, compared to vehicle
[4] = Laquinimod 25 mg/kg oral QD, compared to laquinimod (10 mg/kg)
[5] = Laquinimod 25 mg/kg oral QD, compared to vehicle

Compound: CCN(C(=O)c1c(O)c2c(Cl)cccc2n(C)c1=O)c1ccccc1 [Laquinimod]
- Oral bioavailability [1]: high
- Mean Onset [2]: 21.4 ± 8.2 days
- GMS value (group mean score) ([2]; Laquinimod 10 mg/kg oral QD): 0.8 ± 0.8 and 0.8
- Incidence ([2]; Laquinimod 10 mg/kg oral QD): 8/13
- MMS value (mean maximal score) ([2]; Laquinimod 10 mg/kg oral QD): 1.8 ± 1.7
- Mean Duration ([2]; Laquinimod 10 mg/kg oral QD): 9.2 ± 8.3 days
- Mean Onset ([2]; Laquinimod 10 mg/kg oral QD): 21.3 ± 8.2 days
- Mortality ([2]; Laquinimod 10 mg/kg oral QD): 0/13
- % inhibition 1 (incidence) [2, 3]: 38.5%
- % inhibition 2 (MMS) [2, 3]: 43.8%
- % inhibition 3 (GMS); Activity [2, 3]: 60%
- % inhibition 3 (GMS); Activity ([2]; Laquinimod 10 mg/kg oral QD, compared to vehicle, listed as laquinimod): 60%
- GMS value (group mean score) ([2]; Laquinimod 10 mg/kg oral QD, listed as Laquinmod): 0.8 ± 0.8
- Activity compared to Laquinimod ([2]; Laquinimod 10 mg/kg): 60%
- GMS value (group mean score) ([2]; Laquinimod 25 mg/kg oral QD): 0.3
- Incidence ([2]; Laquinimod 25 mg/kg oral QD): 5/15
- MMS value (mean maximal score) ([2]; Laquinimod 25 mg/kg oral QD): 0.8 ± 1.3
- Mean Duration ([2]; Laquinimod 25 mg/kg oral QD): 5.0 ± 7.4 days
- Mean Onset ([2]; Laquinimod 25 mg/kg oral QD): 25.7 ± 7.8 days
- Mortality ([2]; Laquinimod 25 mg/kg oral QD): 0/15
- % inhibition 1 (incidence) [2, 4]: 37.5%
- % inhibition 2 (MMS) [2, 4]: 55.5%
- % inhibition 3 (GMS) [2, 4]: 62.5%
- % inhibition 1 (incidence) [2, 5]: 61.5%
- % inhibition 2 (MMS) [2, 5]: 75.0%
- % inhibition 3 (GMS); Activity [2, 5]: 85%
- % inhibition 3 (GMS); Activity ([2]; Laquinimod 25 mg/kg oral QD, compared to vehicle, listed as Laquiniomd): 85.0%
- GMS value (group mean score) ([2]; Laquinimod 25 mg/kg oral QD, listed as Laquiniomd): 0.3 ± 0.5
- GMS value (group mean score) ([2]; Laquinimod 25 mg/kg oral QD, listed as Laquinmod): 0.3 ± 0.5
- Activity compared to Laquinimod ([2]; Laquinimod 25 mg/kg): 85%
- Activity compared to interferon-β (500,000 IU/mouse) ([2]; Laquinimod 25 mg/kg, according to GMS): 66.7%^
- Safety and tolerability profile (Multiple Sclerosis): favorable
